Results: patent US12157741B2, “Macrocyclic inhibitors of DYRK1A” (DANA-FARBER CANCER INSTITUTE, INC., priority 2018, dated 2024)
Where two headings read alike, the source gives them in different places.

Experiments:
Assay type in all cases: binding
various enzymes [1] = biological target: various enzymes (Homo sapiens, UniProt Q8N568); details: compound 1 uM
Method: (§1) Ambit profiling was conducted in accordance with the manufacturer's instructions.

various enzymes [2] = biological target: various enzymes (Homo sapiens, UniProt P54753); details: compound 1 uM
Method: as §1

various enzymes [3] = biological target: various enzymes (Homo sapiens, UniProt P53779); details: compound 1 uM
Method: as §1

various enzymes [4] = biological target: various enzymes (Homo sapiens, UniProt P42345); details: compound 1 uM
Method: as §1

various enzymes [5] = biological target: various enzymes (Mycobacterium tuberculosis, UniProt P9WI81); details: compound 1 uM
Method: as §1

various enzymes [6] = biological target: various enzymes (Homo sapiens, UniProt Q14680); details: compound 1 uM
Method: as §1

various enzymes [7] = biological target: various enzymes (Homo sapiens, UniProt P07948); details: compound 1 uM
Sequence of various enzymes (Homo sapiens, UniProt P07948) (P07948 whole entry): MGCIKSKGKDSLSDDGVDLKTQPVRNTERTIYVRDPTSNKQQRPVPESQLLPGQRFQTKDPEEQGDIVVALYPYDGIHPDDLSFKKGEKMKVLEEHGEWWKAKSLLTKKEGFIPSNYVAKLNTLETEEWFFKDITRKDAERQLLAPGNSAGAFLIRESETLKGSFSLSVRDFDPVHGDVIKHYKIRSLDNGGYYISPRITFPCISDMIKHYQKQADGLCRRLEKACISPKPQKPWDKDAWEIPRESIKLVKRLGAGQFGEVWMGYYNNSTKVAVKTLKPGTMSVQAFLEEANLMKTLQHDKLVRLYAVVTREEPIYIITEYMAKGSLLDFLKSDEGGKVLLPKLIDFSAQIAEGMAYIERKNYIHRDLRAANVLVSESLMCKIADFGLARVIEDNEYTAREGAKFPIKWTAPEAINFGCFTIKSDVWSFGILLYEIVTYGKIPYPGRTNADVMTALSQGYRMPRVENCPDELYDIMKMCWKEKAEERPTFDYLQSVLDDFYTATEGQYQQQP
Method: as §1

various enzymes [8] = biological target: various enzymes (Homo sapiens, UniProt O75582); details: compound 1 uM
Sequence of various enzymes (Homo sapiens, UniProt O75582) (O75582 whole entry): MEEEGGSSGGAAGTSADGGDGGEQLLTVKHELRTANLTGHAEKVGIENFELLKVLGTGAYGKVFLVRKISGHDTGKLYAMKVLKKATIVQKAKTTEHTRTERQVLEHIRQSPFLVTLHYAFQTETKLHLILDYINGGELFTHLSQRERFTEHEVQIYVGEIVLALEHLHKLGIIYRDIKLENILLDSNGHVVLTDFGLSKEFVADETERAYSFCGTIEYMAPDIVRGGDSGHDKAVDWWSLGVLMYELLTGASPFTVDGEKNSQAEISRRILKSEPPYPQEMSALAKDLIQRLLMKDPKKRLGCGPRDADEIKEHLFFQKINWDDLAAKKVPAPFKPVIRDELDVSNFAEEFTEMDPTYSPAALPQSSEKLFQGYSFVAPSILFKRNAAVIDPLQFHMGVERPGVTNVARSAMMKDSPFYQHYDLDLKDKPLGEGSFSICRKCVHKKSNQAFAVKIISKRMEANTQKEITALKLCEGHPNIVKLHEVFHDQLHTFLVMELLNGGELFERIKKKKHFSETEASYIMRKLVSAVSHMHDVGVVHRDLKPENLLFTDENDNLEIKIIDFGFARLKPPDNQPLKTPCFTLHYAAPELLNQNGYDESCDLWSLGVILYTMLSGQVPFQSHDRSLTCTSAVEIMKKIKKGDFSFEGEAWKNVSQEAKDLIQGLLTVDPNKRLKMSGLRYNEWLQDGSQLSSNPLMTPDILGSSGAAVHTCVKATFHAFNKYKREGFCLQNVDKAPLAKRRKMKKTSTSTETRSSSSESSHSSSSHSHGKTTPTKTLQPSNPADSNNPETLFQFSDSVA
Method: as §1

various enzymes [9] = biological target: various enzymes (Homo sapiens, UniProt P78356); details: compound 1 uM
Method: as §1

various enzymes [10] = biological target: various enzymes (Homo sapiens, UniProt Q13464); details: compound 1 uM
Method: as §1

various enzymes [11] = biological target: various enzymes (Homo sapiens, UniProt O75676); details: compound 1 uM
Sequence of various enzymes (Homo sapiens, UniProt O75676) (O75676 whole entry): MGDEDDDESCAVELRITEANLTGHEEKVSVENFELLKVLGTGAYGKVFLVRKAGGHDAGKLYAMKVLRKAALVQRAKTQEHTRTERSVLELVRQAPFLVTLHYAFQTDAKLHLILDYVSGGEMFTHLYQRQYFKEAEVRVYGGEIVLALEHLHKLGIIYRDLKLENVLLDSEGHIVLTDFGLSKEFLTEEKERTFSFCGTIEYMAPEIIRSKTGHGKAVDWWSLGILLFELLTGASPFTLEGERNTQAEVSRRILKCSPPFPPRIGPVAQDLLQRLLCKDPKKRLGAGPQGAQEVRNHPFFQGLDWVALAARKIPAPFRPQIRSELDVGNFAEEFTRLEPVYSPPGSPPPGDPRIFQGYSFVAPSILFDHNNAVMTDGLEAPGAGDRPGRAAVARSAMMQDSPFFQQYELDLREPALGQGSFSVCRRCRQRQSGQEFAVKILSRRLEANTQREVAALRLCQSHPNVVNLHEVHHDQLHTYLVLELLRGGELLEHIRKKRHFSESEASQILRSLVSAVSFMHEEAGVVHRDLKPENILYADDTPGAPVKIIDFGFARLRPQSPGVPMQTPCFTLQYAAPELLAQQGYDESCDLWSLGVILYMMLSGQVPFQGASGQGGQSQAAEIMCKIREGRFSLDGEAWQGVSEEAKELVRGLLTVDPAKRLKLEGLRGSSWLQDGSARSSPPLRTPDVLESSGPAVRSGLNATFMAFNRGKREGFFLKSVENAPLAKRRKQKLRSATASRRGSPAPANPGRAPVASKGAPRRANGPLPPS
Method: as §1

various enzymes [12] = biological target: various enzymes (Homo sapiens, UniProt Q13188); details: compound 1 uM
Method: as §1

various enzymes [13] = biological target: various enzymes (Homo sapiens, UniProt Q13163); details: compound 1 uM
Method: as §1

various enzymes [14] = biological target: various enzymes (Homo sapiens, UniProt Q99683); details: compound 1 uM
Method: as §1

various enzymes [15] = biological target: various enzymes (Homo sapiens, UniProt Q9UHD2); details: compound 1 uM
Method: as §1

various enzymes [16] = biological target: various enzymes (Homo sapiens, UniProt P29376); details: compound 1 uM
Sequence of various enzymes (Homo sapiens, UniProt P29376) (P29376 17-864): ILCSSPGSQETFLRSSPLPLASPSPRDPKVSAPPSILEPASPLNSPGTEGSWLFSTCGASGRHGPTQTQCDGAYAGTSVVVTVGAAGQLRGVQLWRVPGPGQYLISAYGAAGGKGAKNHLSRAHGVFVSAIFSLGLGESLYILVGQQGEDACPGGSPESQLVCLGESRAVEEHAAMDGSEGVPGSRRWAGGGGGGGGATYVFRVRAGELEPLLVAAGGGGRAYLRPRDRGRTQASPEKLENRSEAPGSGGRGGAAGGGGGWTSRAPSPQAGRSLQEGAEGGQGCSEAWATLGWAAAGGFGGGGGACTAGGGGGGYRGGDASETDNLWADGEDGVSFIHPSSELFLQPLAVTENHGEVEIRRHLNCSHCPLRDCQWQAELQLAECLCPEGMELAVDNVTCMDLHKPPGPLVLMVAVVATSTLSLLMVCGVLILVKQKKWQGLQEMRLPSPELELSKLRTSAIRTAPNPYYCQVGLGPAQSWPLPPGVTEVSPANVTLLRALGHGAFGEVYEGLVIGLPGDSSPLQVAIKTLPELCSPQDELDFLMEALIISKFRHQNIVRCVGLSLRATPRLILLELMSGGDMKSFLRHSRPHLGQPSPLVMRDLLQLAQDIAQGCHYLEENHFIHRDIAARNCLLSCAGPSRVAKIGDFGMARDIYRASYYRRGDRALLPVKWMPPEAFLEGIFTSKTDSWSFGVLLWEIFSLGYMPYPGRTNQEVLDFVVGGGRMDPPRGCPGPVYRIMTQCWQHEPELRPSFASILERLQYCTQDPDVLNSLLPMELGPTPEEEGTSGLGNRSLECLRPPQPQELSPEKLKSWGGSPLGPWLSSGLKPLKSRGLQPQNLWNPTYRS
Method: as §1

various enzymes [17] = biological target: various enzymes (Homo sapiens, UniProt Q8N5S9); details: compound 1 uM
Method: as §1

various enzymes [18] = biological target: various enzymes (Homo sapiens, UniProt P0C264); details: compound 1 uM
Sequence of various enzymes (Homo sapiens, UniProt P0C264) (P0C264 whole entry): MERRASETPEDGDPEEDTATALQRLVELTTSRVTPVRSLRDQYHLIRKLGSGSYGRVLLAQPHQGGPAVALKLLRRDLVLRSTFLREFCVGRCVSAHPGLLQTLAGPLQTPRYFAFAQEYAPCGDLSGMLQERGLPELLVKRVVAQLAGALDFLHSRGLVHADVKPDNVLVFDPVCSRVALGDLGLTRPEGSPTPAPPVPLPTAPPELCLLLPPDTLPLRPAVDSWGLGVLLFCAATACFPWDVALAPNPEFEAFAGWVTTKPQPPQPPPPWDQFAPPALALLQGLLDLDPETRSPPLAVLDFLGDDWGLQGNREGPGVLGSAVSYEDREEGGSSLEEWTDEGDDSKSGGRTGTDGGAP
Method: as §1

various enzymes [19] = biological target: various enzymes (Homo sapiens, UniProt P10721, V559D/V654A)
Method: as §1

various enzymes [20] = biological target: various enzymes (Homo sapiens, UniProt Q9Y2H1); details: compound 1 uM
Method: as §1

various enzymes [21] = biological target: various enzymes (Homo sapiens, UniProt P36888, K663Q)
Method: as §1

various enzymes [22] = biological target: various enzymes (Homo sapiens, UniProt P21860); details: compound 1 uM
Method: as §1

various enzymes [23] = biological target: various enzymes (Homo sapiens, UniProt Q9BZL6); details: compound 1 uM
Method: as §1

various enzymes [24] = biological target: various enzymes (Homo sapiens, UniProt Q8NE63); details: compound 1 uM
Method: as §1

various enzymes [25] = biological target: various enzymes (Homo sapiens, UniProt P23458); details: compound 1 uM
Sequence of various enzymes (Homo sapiens, UniProt P23458) (P23458 whole entry): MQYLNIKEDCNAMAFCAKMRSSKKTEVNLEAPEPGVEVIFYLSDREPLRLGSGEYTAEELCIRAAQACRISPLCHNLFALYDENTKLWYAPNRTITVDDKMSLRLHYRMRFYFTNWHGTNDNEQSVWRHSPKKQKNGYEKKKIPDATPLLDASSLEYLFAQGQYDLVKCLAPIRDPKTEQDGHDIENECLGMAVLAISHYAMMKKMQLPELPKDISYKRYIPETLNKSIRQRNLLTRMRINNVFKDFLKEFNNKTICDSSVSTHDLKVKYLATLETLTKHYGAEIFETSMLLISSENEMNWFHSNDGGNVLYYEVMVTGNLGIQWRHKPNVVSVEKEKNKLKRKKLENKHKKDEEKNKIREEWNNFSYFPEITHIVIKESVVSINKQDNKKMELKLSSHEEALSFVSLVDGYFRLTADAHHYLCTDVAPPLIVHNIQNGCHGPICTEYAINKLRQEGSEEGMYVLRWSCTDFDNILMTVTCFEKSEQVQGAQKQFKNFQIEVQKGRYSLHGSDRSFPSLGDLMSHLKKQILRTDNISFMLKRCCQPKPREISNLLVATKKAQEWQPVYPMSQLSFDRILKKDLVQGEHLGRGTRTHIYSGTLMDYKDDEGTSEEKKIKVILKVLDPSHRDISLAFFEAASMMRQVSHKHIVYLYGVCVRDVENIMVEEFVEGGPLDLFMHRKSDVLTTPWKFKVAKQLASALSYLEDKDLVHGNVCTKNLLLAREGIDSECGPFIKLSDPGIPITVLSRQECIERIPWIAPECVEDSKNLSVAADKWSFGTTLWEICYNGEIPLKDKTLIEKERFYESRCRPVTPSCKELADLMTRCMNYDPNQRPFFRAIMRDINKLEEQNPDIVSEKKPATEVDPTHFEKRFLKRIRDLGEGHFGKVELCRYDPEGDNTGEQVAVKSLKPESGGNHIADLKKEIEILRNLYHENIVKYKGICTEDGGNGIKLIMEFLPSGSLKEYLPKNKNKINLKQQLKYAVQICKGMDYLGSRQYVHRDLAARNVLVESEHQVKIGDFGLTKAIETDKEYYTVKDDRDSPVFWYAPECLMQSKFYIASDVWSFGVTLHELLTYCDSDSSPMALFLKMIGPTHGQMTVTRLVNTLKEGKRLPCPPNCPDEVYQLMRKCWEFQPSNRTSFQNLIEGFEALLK
Method: as §1

various enzymes [26] = biological target: various enzymes (Homo sapiens, UniProt P04626); details: compound 1 uM
Method: as §1

various enzymes [27] = biological target: various enzymes (Homo sapiens, UniProt Q8IW41); details: compound 1 uM
Method: as §1

various enzymes [28] = biological target: various enzymes (Homo sapiens, UniProt Q8WXR4); details: compound 1 uM
Method: as §1

various enzymes [29] = biological target: various enzymes (Homo sapiens, UniProt Q05397); details: compound 1 uM
Method: as §1

various enzymes [30] = biological target: various enzymes (Homo sapiens, UniProt Q86UX6); details: compound 1 uM
Method: as §1

various enzymes [31] = biological target: various enzymes (Homo sapiens, UniProt P51956); details: compound 1 uM
Method: as §1

various enzymes [32] = biological target: various enzymes (Homo sapiens, UniProt P29322); details: compound 1 uM
Method: as §1

various enzymes [33] = biological target: various enzymes (Homo sapiens, UniProt Q96J92); details: compound 1 uM
Method: as §1

various enzymes [34] = biological target: various enzymes (Homo sapiens, UniProt P24723); details: compound 1 uM
Method: as §1

various enzymes [35] = biological target: various enzymes (Homo sapiens, UniProt P43405); details: compound 1 uM
Method: as §1

various enzymes [36] = biological target: various enzymes (Homo sapiens, UniProt Q6ZWH5); details: compound 1 uM
Method: as §1

various enzymes [37] = biological target: various enzymes (Homo sapiens, UniProt P31152); details: compound 1 uM
Method: as §1

various enzymes [38] = biological target: various enzymes (Homo sapiens, UniProt P54756); details: compound 1 uM
Method: as §1

various enzymes [39] = biological target: various enzymes (Homo sapiens, UniProt P42336, E545K)
Method: as §1

various enzymes [40] = biological target: various enzymes (Homo sapiens, UniProt P04629); details: compound 1 uM
Method: as §1

various enzymes [41] = biological target: various enzymes (Homo sapiens, UniProt Q13153); details: compound 1 uM
Sequence of various enzymes (Homo sapiens, UniProt Q13153) (Q13153 whole entry): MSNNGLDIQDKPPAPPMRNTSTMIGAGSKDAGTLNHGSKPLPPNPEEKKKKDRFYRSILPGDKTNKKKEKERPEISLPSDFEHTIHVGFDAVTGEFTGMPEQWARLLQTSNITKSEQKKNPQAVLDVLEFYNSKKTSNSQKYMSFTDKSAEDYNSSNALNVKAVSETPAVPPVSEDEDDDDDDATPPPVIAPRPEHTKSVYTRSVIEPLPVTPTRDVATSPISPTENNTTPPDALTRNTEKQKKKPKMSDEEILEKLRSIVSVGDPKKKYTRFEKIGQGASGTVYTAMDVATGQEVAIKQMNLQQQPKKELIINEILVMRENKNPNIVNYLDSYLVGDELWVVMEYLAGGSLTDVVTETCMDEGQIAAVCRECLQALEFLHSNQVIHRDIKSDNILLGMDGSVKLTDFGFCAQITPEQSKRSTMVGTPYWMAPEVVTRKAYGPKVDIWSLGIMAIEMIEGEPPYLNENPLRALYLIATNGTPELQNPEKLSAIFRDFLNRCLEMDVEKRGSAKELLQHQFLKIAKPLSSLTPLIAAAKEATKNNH
Method: as §1

CC(C)N1Cc2nn(C)cc2-c2cnc3[nH]cc(c3c2)-c2cn(nc2C(F)(F)F)CCCC1=O [Compound 45, (Z)-5-isopropyl-31-methyl-13-(trifluoromethyl)-11H,21H,31H-5-aza-2(3,5)-pyrrolo[2,3-b]pyridina-1(4,1),3(4,3)-dipyrazolacyclononaphan-6-one]
Ambit profiling: DCAMKL2 (various enzymes [1]): 100 | Ambit profiling: EPHB3 (various enzymes [2]): 97 | Ambit profiling: JNK3 (various enzymes [3]): 29 | Ambit profiling: MTOR (various enzymes [4]): 69 | Ambit profiling: PKNB(M. tuberculosis) (various enzymes [5]): 7 | Ambit profiling: MELK (various enzymes [6]): 0.25 | Ambit profiling: LYN (various enzymes [7]): 22 | Ambit profiling: RPS6KA5(Kin.Dom.1-N-terminal) (various enzymes [8]): 70 | Ambit profiling: RPS6KA5(Kin.Dom.2-C-terminal) (various enzymes [8]): 100 | Ambit profiling: PIP5K2B (various enzymes [9]): 23 | Ambit profiling: ROCK1 (various enzymes [10]): 95 | Ambit profiling: RPS6KA4(Kin.Dom.1-N-terminal) (various enzymes [11]): 98 | Ambit profiling: RPS6KA4(Kin.Dom.2-C-terminal) (various enzymes [11]): 100 | Ambit profiling: MST2 (various enzymes [12]): 0 | Ambit profiling: MEK5 (various enzymes [13]): 11 | Ambit profiling: ASK1 (various enzymes [14]): 100 | Ambit profiling: TBK1 (various enzymes [15]): 0 | Ambit profiling: LTK (various enzymes [16]): 18 | Ambit profiling: CAMKK1 (various enzymes [17]): 3.6 | Ambit profiling: SgK110 (various enzymes [18]): 98 | Ambit profiling: KIT(V559D, V654A) (various enzymes [19]; compound 1 uM): 100 | Ambit profiling: NDR2 (various enzymes [20]): 92 | Ambit profiling: FLT3(K663Q) (various enzymes [21]; compound 1 uM): 2 | Ambit profiling: ERBB3 (various enzymes [22]): 100 | Ambit profiling: PRKD2 (various enzymes [23]): 43 | Ambit profiling: HIPK4 (various enzymes [24]): 2.1 | Ambit profiling: JAK1(JH1domain-catalytic) (various enzymes [25]): 36 | Ambit profiling: JAK1(JH2domain-pseudokinase) (various enzymes [25]): 65 | Ambit profiling: ERBB2 (various enzymes [26]): 100 | Ambit profiling: MAPKAPK5 (various enzymes [27]): 100 | Ambit profiling: MYO3B (various enzymes [28]): 6.7 | Ambit profiling: FAK (various enzymes [29]): 20 | Ambit profiling: YANK3 (various enzymes [30]): 100 | Ambit profiling: NEK3 (various enzymes [31]): 50 | Ambit profiling: EPHA8 (various enzymes [32]): 8.7 | Ambit profiling: WNK4 (various enzymes [33]): 97 | Ambit profiling: PRKCH (various enzymes [34]): 100 | Ambit profiling: SYK (various enzymes [35]): 35 | Ambit profiling: NEK10 (various enzymes [36]): 97 | Ambit profiling: ERK4 (various enzymes [37]): 100 | Ambit profiling: EPHA5 (various enzymes [38]): 92 | Ambit profiling: PIK3CA(E545K) (various enzymes [39]; compound 1 uM): 51 | Ambit profiling: TRKA (various enzymes [40]): 0 | Ambit profiling: PAK1 (various enzymes [41]): 69

COc1c2c(nn1C)CN(C(C)C)C(=O)CCCn1cc(c(C(F)(F)F)n1)-c1c[nH]c3ncc-2cc13 [Compound 50, (Z)-5-isopropyl-35-methoxy-31-methyl-13-(trifluoromethyl)-11H,21H,31H-5-aza-2(3,5)-pyrrolo[2,3-b]pyridina-1(4,1),3(4,3)-dipyrazolacyclononaphan-6-one]
Ambit profiling: DCAMKL2 (various enzymes [1]): 90 | Ambit profiling: EPHB3 (various enzymes [2]): 62 | Ambit profiling: JNK3 (various enzymes [3]): 8.8 | Ambit profiling: MTOR (various enzymes [4]): 98 | Ambit profiling: PKNB(M. tuberculosis) (various enzymes [5]): 36 | Ambit profiling: MELK (various enzymes [6]): 11 | Ambit profiling: LYN (various enzymes [7]): 15 | Ambit profiling: RPS6KA5(Kin.Dom.1-N-terminal) (various enzymes [8]): 18 | Ambit profiling: RPS6KA5(Kin.Dom.2-C-terminal) (various enzymes [8]): 72 | Ambit profiling: PIP5K2B (various enzymes [9]): 35 | Ambit profiling: ROCK1 (various enzymes [10]): 79 | Ambit profiling: RPS6KA4(Kin.Dom.1-N-terminal) (various enzymes [11]): 62 | Ambit profiling: RPS6KA4(Kin.Dom.2-C-terminal) (various enzymes [11]): 100 | Ambit profiling: MST2 (various enzymes [12]): 3.1 | Ambit profiling: MEK5 (various enzymes [13]): 0 | Ambit profiling: ASK1 (various enzymes [14]): 100 | Ambit profiling: TBK1 (various enzymes [15]): 3.8 | Ambit profiling: LTK (various enzymes [16]): 8.7 | Ambit profiling: CAMKK1 (various enzymes [17]): 8 | Ambit profiling: SgK110 (various enzymes [18]): 99 | Ambit profiling: KIT(V559D, V654A) (various enzymes [19]): 70 | Ambit profiling: NDR2 (various enzymes [20]): 78 | Ambit profiling: FLT3(K663Q) (various enzymes [21]): 0.9 | Ambit profiling: ERBB3 (various enzymes [22]): 100 | Ambit profiling: PRKD2 (various enzymes [23]): 55 | Ambit profiling: HIPK4 (various enzymes [24]): 1.5 | Ambit profiling: JAK1(JH1domain-catalytic) (various enzymes [25]): 100 | Ambit profiling: JAK1(JH2domain-pseudokinase) (various enzymes [25]): 81 | Ambit profiling: ERBB2 (various enzymes [26]): 86 | Ambit profiling: MAPKAPK5 (various enzymes [27]): 100 | Ambit profiling: MYO3B (various enzymes [28]): 9 | Ambit profiling: FAK (various enzymes [29]): 5.3 | Ambit profiling: YANK3 (various enzymes [30]): 74 | Ambit profiling: NEK3 (various enzymes [31]): 51 | Ambit profiling: EPHA8 (various enzymes [32]): 26 | Ambit profiling: WNK4 (various enzymes [33]): 100 | Ambit profiling: PRKCH (various enzymes [34]): 85 | Ambit profiling: SYK (various enzymes [35]): 26 | Ambit profiling: NEK10 (various enzymes [36]): 87 | Ambit profiling: ERK4 (various enzymes [37]): 82 | Ambit profiling: EPHA5 (various enzymes [38]): 67 | Ambit profiling: PIK3CA(E545K) (various enzymes [39]): 74 | Ambit profiling: TBKA (various enzymes [40]): 0 | Ambit profiling: PAK1 (various enzymes [41]): 76
